1 compound from US7799811B2, “Agent for prevention and treatment of cancer comprising oxadiazole urea compound obstructing activity of stat” (Korea Research Institute of Bioscience and Biotechnology, priority 2006, dated 2010) can be followed below.

Data set [1] relates to MDA-MB-468 breast cancer cells. The experiment in a line: WST-1 growth inhibition assay, MDA-MB-468. Type of data set: cell-based. The settings on record: Homo sapiens, MDA-MB-468 cells, 24 hrs. As for the experimental part: (§1) The oxadiazole urea compound of the present invention was estimated for growth inhibitory activity against other human cancer cell lines in a WST-1 assay.
(§2) Human cancer cell lines were cultured in 10% fetal bovine serum (FBS)-containing medium at 37[…] under 5% CO2, and detached using 0.05% trypsin-EDTA. Cells were seeded onto a 96-well plate at a density of 5×10^3 cells per well (for MDA-MB-231 and MDA-MB-468 breast cancer cells) or at a density of 7×10^3 cells per well (for colorectal carcinoma HCT116 and colon cancer SW620 cells).
(§3) Then, cells were cultured in 10% FBS containing medium in an incubator at 37[…] under 5% CO2. After 24 hrs, the medium was exchanged with a medium containing 0.1% DMSO (as a control), or with media containing the oxadiazole urea compound at various concentrations (the compound dissolved in DMSO was diluted in medium), and cells were further cultured for 24 hrs. 10 μl of WST-1 Reagent (Roche) was added to each well, and the plate was incubated for 2 hrs. Absorbance was measured at 450 nm using an ELISA reader (Bio-Rad).
In general terms: Tetrazolium dyes change colour on reduction, which living cells bring about.

Data set [2] deals with colon cancer SW620 cells. The experiment in a line: WST-1 growth inhibition assay, SW620. The class given is cell-based. The settings on record: Homo sapiens, SW-620, 24 hrs. As for the experimental part: as §1, §2, §3
The subject of data set [3] is SD rats. The experiment in a line: acute toxicity test on oral application in rats. Type of data set: in vivo. The settings on record: single oral dose of 1 g/kg/ml. The procedure:
An acute toxicity test was conducted with 6-week-old specific pathogen-free (SPF) SD rats. The present compound was suspended in injectable distilled water, and orally administered to two SD rats per group at a single dose of 1 g/kg/ml. […] After autopsy, abnormalities of abdominal and thoracic organs were visually observed.

A short description of data set [4]: solubility in solvents. Type of data set: physicochemical.
Data set [5] relates to colorectal carcinoma HCT116 cells. Briefly: WST-1 growth inhibition assay, HCT116. The class given is cell-based. The settings on record: Homo sapiens, HCT-116, 24 hrs. As for the experimental part:
as §1, §2, §3

In data set [6] the target is T1, STAT3 (Homo sapiens, UniProt P40763).
T1 construct: Colorectal carcinoma HCT116 cells were co-transfected with a plasmid carrying firefly luciferase, whose expression increases with STAT3 activity; endogenous in cells; host or cells: HCT116 human colorectal carcinoma cells
T1 sequence (P40763 whole entry): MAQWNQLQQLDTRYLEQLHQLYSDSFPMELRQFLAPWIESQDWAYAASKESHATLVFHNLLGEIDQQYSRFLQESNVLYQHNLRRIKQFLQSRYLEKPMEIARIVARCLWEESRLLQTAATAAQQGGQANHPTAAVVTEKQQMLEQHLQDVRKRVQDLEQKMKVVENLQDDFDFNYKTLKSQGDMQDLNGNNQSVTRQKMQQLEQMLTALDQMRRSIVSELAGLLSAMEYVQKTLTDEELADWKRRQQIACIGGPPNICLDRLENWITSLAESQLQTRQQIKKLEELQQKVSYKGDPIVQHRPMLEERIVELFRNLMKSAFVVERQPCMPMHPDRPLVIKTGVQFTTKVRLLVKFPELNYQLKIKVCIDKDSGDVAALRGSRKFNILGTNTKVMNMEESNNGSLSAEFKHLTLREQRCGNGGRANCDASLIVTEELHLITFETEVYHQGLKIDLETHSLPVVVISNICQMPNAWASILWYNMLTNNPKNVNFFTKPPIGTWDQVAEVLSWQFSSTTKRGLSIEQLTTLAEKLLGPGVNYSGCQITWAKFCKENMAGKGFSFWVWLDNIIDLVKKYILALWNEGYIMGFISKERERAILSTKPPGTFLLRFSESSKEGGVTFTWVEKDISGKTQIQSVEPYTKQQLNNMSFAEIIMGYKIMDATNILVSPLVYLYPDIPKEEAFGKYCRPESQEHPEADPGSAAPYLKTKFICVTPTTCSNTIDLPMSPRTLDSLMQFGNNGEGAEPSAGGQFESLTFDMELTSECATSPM
Briefly: dual luciferase assay for STAT3 inhibitory activity in transfected HCT116 cells. The class given is cell-based. The settings on record: HCT116 cells transfected with STAT3-dependent firefly luciferase; 12 hrs or 24 hrs; read-out: concentration inhibiting 50% of STAT3 activity. The procedure:
A dual luciferase assay was performed to determine whether the oxadiazole urea compound of the present invention has inhibitory activity against STAT3.
Colorectal carcinoma HCT116 cells were co-transfected with a plasmid carrying firefly luciferase, whose expression increases with STAT3 activity, and another plasmid carrying renilla luciferase, which is expressed independently of STAT3 activity. The transfected HCT116 cells were detached using 0.05% trypsin EDTA and seeded onto a 96-well test plate at a density of 1×10^4 cells per well. Cells were cultured in an incubator at 37[…] under 5% CO2 for 3 hrs, and then incubated with DMSO (1%) alone as a control and with the oxadiazole urea compound (dissolved in DMSO) at various concentrations (diluted 1/100).
After 12 hrs or 24 hrs, STAT activity was assayed by adding two different substrates for firefly luciferase and renilla luciferase, beetle luciferin and coelenterazine, to the medium. The luminescence intensity by substrate degradation was measured using a luminometer (Wallac 1420). The measured firefly luciferase activity reflected STAT3 activity in a proportional manner. Renilla luciferase was used to calibrate non-specific cytotoxicity, occurring in each test group, and internal deviation.

Data set [7] deals with MDA-MB-231 breast cancer cells. Briefly: WST-1 growth inhibition assay, MDA-MB-231. The class given is cell-based, human. The settings on record: MDA-MB-231 cells, 24 hrs. As for the experimental part:
as §1, §2, §3

Bounds are passed on as bounds.

On to `O=C(Nc1ccc(C(F)(F)F)cc1)Nc1nonc1-c1ccc(Cl)cc1` [compound of Chemical Formula 1], for which the figures for the 50% growth inhibitory concentration (GI50) in data set [1], in data set [2] and in data set [5] were 40 µM, 70 µM and 15 µM, respectively. Besides, in data set [3], the clinical symptoms result is “no special clinical symptoms”. Also, the “solubility in a nonpolar solvent” value in data set [4] (nonpolar solvent, such as hexane) is listed as “not dissolved”. Besides, the “solubility in a polar solvent” value in data set [4] (polar solvent, such as DMSO) is “well dissolved”. Also, the IC50 in data set [6] is 2.5 to 3 µM. For the same compound, in data set [7], the “50% growth inhibition concentration” value is given as at least 100 μm.

One may read the GI50 as the concentration giving 50% growth inhibition. The low end stands for more potent growth inhibition, the high end for less potent growth inhibition.
